Reference: patent publication US12427142B2, “Combination comprising alpelisib and 6-(2,4-dichlorophenyl)-5-[4-[(3S)-1-(3-fluoropropyl)pyrrolidin-3-yl[oxyphenyl]-8,9-dihydro-7H-benzo[7]annulene-2-carboxylic acid” (Sanofi, priority 2020, dated 2025)
Where two headings read alike, the source gives them in different places.

Experiments:
[1] = test system: MCF7-Y537S human breast cancer cell line xenograft; conditions: experiment 1, compound (1) 20 mg/kg BID, alpelisib 25 mg/kg QD; for Tumor volume changes from baseline, Median: PO; for Median % of regressions on day 22 / ΔT/ΔC in % at day 22 / Regressions Complete / Regressions Partial: PO days 0 to 22; for Regressions Complete / Regressions Partial: animals/group; for Anti-tumor effect on tumor growth (in words) / Biological Interpretation: day 22
Experimental: In the present study, the anti-tumor efficacy of 6-(2,4-dichlorophenyl)-5-[4-[(3S)-1-(3-fluoropropyl)pyrrolidin-3-yl]oxyphenyl]-8,9-dihydro-7H-benzo[7]annulene-2-carboxylic acid (“compound (1)”), combined with alpha-specific phosphoinositide 3-kinase (PI3K) inhibitor alpelisib, was investigated after 22 day treatment against a subcutaneous MCF7-Y537S human breast cancer cell line xenograft in female nude mice.
The treated groups included compound (1) at 20 mg/kg alone, alpelisib at 25 mg/kg alone, and the combination of compound (1) and alpelisib at the same dose and regime.
Compound (1) was orally dosed twice a day (BID) and alpelisib was orally dosed once a day (QD) for 22 days. Anti-tumor efficacy was evaluated by tumor volume measurement.
Female BALB/c nude mice were obtained from Shanghai Sino-British SIPPR/BK Laboratory Animal Co., LTD (Shanghai, CHINA). Animals were allowed to acclimate for at least four days before the study enrollment. Mice were 6 to 8 weeks old and weighed between 18 and 24 grams at the beginning of the treatments. These animals were housed under conditions outlined in the guidelines approved by the Institutional Animal Care and Use Committee (IACUC) of WuXi AppTec following the guidance of the Association for Assessment and Accreditation of Laboratory Animal Care (AAALAC).
Parental MCF7 cells were obtained from the American Type Culture Collection (ATCC® HTB-22™). MCF7-Y537S (ESR1) cell line was MCF7 cells expressing the ER.Y537S variant that was generated by Sanofi Biology Discovery Group. Y537S mutation was introduced in ESR1 construct (GenBank NM_000125.3) by site directed mutagenesis (Toy W. et al., Cancer Discovery, 2017, 7, 277-287). The construct was transfected in MCF7 cells which were selected for their growth in absence of estradiol. MCF-Y537S is an ESR1 mutation that confers estrogen-independent activity to ERα (Estrogen Receptor alpha) and contributes to endocrine resistant disease (Robinson D. R. et al., Nat Genet., 2013, 45 (12), 1446-1451). The cells were grown in Eagle's Minimum Essential Medium (EMEM) supplemented with 10% fetal bovine serum (FBS), human Insulin, in 5% CO2 at 37° C. The cells were harvested in 0.25% Trypsin EDTA and washed by Phosphate Buffered Saline (PBS) and re-suspended in PBS with 75% Matrigel. The cells (20×10^6 cells/per mouse) were subcutaneously (SC) implanted into the right flank of female nude mice.
When the MCF7-Y537S tumors were established, the tumors were reserved as tumor stocks for fragment implantation. The tumors were serially propagated through fragment tissue transplantation subcutaneously. The fragment tumor tissues were subcutaneously implanted into the right flank of female nude mice. 28 mice were assigned in this experiment.
Alpelisib (commercially available, marketed under the tradename PIQRAY®) was formulated in 100% of HPMC (hydroxypropyl-methylcellulose)/TWEEN80 0.5/0.1% in water. Compound (1) was prepared in 5% Solutol HS15 (purchased from Sigma) at pH 3.0.
Dose volume for compound (1) and alpelisib for oral administration: 10 ml/kg by oral gavage.
Doses: compound (1) at 20 mg/kg and alpelisib at 25 mg/kg in the above volume.
The animals required for experiment (plus extra) were pooled and implanted with MCF7-Y537S tumor fragment tissues. […] Treatments of compound (1) and alpelisib were initiated on day 0. Compound (1) was orally administered at 20 mg/kg BID (8 hours apart) and alpelisib was orally administered at 25 mg/kg QD, for 22 days. Animal body weight was assessed daily.
The dosages are expressed in mg/kg and based on daily body weight per animal. Vehicle treated animals were used as controls. Mice were checked daily for adverse clinical reactions. Individual mice were weighed daily until the end of the experiment.

[2] = test system: MCF7-Y537S human breast cancer cell line xenograft; type: in vivo; conditions: experiment 2, compound (1) 10 mg/kg BID, alpelisib 25 mg/kg QD; for Tumor volume changes from baseline, Median: PO; for Median % of regressions on day 28 / ΔT/ΔC in % at day 28 / Regressions Complete / Regressions Partial: PO days 0 to 28; for Regressions Complete / Regressions Partial: animals/group; for Anti-tumor effect on tumor growth (in words) / Biological Interpretation: day 28

Row | Compound | Tumor volume changes from baseline, Median ([1]; Day 4) [mm^3] | Tumor volume changes from baseline, Median ([1]; Day 8) [mm^3] | Tumor volume changes from baseline, Median ([1]; Day 11) [mm^3] | Tumor volume changes from baseline, Median ([1]; Day 15) [mm^3] | Tumor volume changes from baseline, Median ([1]; Day 18) [mm^3] | Tumor volume changes from baseline, Median ([1]; Day 22) [mm^3] | Median % of regressions on day 22 [1] [%] | ΔT/ΔC in % at day 22 [1] [%] | Regressions Complete [1] | Regressions Partial [1] | Anti-tumor effect on tumor growth (in words) [1] | Biological Interpretation [1] | Tumor volume changes from baseline, Median ([2]; Day 3) [mm^3] | Tumor volume changes from baseline, Median ([2]; Day 7) [mm^3] | Tumor volume changes from baseline, Median ([2]; Day 10) [mm^3] | Tumor volume changes from baseline, Median ([2]; Day 14) [mm^3] | Tumor volume changes from baseline, Median ([2]; Day 17) [mm^3] | Tumor volume changes from baseline, Median ([2]; Day 21) [mm^3] | Tumor volume changes from baseline, Median ([2]; Day 24) [mm^3] | Tumor volume changes from baseline, Median ([2]; Day 28) [mm^3] | also measured
1 | Cc1nc(NC(=O)N2CCC[C@H]2C(N)=O)sc1-c1ccnc(C(C)(C)C(F)(F)F)c1 [Alpelisib] | 68.0 | 102.0 | 163.0 | 262.0 | 315.0 | 491.0 | 0 | 46 | 0/7 | 0/7 | did not induce statistically significant anti-tumor efficacy | Inactive | 7.0 | −9.0 | −17.0 | 44.0 | 121.5 | 211.0 | 245.5 | 299.5 | Body weight loss ([2]; 28 days): no significant body weight loss; Tolerability ([2]; 28 days): well tolerated; Median % of regressions on day 28 [2]: 0%; ΔT/ΔC in % at day 28 [2]: 66%; Regressions Complete [2]: 0/8; Regressions Partial [2]: 0/8; Anti-tumor effect on tumor growth (in words) [2]: statistically significant anti-tumor efficacy; Biological Interpretation [2]: inactive
2 | O=C(O)c1ccc2c(c1)CCCC(c1ccc(Cl)cc1Cl)=C2c1ccc(O[C@H]2CCN(CCCF)C2)cc1 [Compound (1), 6-(2,4-dichlorophenyl)-5-[4-[(3S)-1-(3-fluoropropyl)pyrrolidin-3-yl]oxyphenyl]-8,9-dihydro-7H-benzo[7]annulene-2-carboxylic acid] | 43.0 | 121.0 | 214.0 | 360.0 | 392.0 | 501.0 | 0 | 47 | 0/7 | 0/7 | no statistically significant anti-tumor effect | Inactive | 9.0 | 36.0 | 48.0 | 62.5 | 92.0 | 167.5 | 189.5 | 166.5 | Unscheduled death (Day of death) ([1]; PO for 22 days, deaths/animals): 0/7; Median % of regressions on day 28 [2]: 0%; ΔT/ΔC in % at day 28 [2]: 37%; Regressions Complete [2]: 0/8; Regressions Partial [2]: 0/8; Unscheduled death (Day of death) ([2]; PO for 28 days, deaths/animals): 0/8; Anti-tumor effect on tumor growth (in words) [2]: statistically significant anti-tumor effect; Biological Interpretation [2]: active
